In PMC3371734 (The Journal of Experimental Medicine, 2012):

Assays:
α3 GlyR [1] = target: T1, α3 GlyR (Rattus norvegicus, UniProt P24524); experiment: whole-cell patch clamp, potentiation of glycine current; format: cell-based; conditions: HEK 293 cells, allosteric potentiator, sustained application
T1 sequence (P24524 34-464): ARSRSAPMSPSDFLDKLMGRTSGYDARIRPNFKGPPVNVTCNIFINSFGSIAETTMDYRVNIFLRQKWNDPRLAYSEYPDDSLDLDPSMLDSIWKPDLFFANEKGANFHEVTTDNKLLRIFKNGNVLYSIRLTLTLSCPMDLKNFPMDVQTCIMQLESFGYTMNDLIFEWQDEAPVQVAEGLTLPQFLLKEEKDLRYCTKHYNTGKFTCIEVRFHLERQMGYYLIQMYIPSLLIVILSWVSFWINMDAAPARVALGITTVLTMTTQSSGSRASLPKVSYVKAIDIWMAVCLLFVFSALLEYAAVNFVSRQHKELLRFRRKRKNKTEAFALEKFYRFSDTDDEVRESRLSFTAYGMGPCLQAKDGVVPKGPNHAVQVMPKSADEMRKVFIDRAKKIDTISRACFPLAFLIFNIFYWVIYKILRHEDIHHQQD

α3 GlyR [2] = target: T1, α3 GlyR; experiment: whole-cell patch clamp, glycine currents; format: cell-based

| Compound | % potentiation at 1 μM (α3 GlyR [1]) | EC50 (α3 GlyR [2]) |
| --- | --- | --- |
| C=C(C)[C@@H]1CCC(C)=C[C@H]1c1c(O)cc(CCCCC)cc1O [CBD, cannabidiol] | 491 ± 101% | – |
| NCC(=O)O [glycine] | – | 377 ± 45 µM |
